Source: patent publication US9096889B2, “Compositions and methods for monitoring transmembrane trafficking” (Promega Corporation, priority 2011, dated 2015)

Experiments:
[1] = system: AT1R/FFluc fusion; experiment: AT1R/FFluc fusion endocytosis assay (reduction of luciferase signal); format: cell-based; details: varying concentrations, 15 minutes stimulation, FIG. 8
Procedure: For FFluc-V2R and FFluc-AT1R, plasmid DNA was transfected at 5 ng/well and 0.16 ng/well respectively. For transfection into HeLa cells, plasmid DNA was diluted 1:10 into carrier DNA yielding 5 ng/well plasmid DNA. […] 50 μL per well of luciferase substrate, D-luciferin, was then added to a final concentration of 0.2 mM D-luciferin, 2 mM MgCl2, and 2 mM ATP, and the cells incubated for 30 minutes at 37° C. For AT1R and V2R, 0.02 mM D-luciferin was used. For the luc2-B2AR experiment, 0.01 mM D-luciferin was used. For the FFLuc experiment using the D-luciferin derivative, PBI-3102, 0.02 mM substrate was used. Immediately prior to stimulation, luminescence was measured on a GLOMAX Multi Plus plate reader set to 0.5 s of integration time. Cells were then stimulated with the agonist indicated below ( 1/10 volume addition), and luminescence measured every two minutes in real-time. […] As controls, cells were treated with vehicle (Opti-MEM containing either DMSO or water). Normalized luminescence was determined by dividing the luminescence value (RLUs) of each sample by the luminescence from the same sample prior to stimulation (SEE FIG. 1A-D).
Cells were transfected with plasmid DNA encoding AT1R/FFluc fusion. […] Immediately prior to stimulation, luminescence was measured. Cells were then stimulated with varying concentrations of TRV120027 for 15 minutes, and luminescence detected. […]

[2] = target: beta2-adrenergic receptor (B2AR) fused to firefly luciferase (luc2) (UniProt P07550+P08659, E27Q/G16R/N119G/N50D); details: HEK293 cells, serially diluted agonist 30 minutes, trypsin/EDTA, D-luciferin without Mg/ATP, FIG. 2F
Chain of beta2-adrenergic receptor (B2AR) fused to firefly luciferase (luc2) (P08659+P07550 fused P08659:N50D/P08659:N119G/P07550:G16R/P07550:E27Q): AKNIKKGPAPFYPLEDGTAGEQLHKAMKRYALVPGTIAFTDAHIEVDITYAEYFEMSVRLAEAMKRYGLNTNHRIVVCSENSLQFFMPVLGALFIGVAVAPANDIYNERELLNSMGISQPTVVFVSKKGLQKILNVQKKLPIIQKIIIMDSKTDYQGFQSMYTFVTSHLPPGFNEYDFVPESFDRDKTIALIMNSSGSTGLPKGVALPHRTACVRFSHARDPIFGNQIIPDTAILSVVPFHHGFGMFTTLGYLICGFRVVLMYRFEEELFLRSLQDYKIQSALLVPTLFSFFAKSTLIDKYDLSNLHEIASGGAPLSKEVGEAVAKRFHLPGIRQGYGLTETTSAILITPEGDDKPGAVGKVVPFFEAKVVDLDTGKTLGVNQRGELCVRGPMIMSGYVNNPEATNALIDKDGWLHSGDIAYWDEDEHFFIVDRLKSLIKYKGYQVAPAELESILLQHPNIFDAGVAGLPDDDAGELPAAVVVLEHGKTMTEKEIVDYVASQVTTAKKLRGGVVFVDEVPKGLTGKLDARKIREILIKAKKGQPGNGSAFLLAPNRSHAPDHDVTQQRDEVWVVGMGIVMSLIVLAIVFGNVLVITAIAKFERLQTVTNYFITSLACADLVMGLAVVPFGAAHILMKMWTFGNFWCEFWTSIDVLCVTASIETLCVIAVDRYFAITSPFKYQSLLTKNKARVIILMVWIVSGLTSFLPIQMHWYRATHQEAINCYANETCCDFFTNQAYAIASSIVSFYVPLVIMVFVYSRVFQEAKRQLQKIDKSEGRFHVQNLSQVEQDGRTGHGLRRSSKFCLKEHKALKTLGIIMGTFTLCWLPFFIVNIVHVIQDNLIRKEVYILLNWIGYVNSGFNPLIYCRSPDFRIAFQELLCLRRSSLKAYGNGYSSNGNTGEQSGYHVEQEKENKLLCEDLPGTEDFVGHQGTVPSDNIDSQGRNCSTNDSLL

| internalization of AT1R/FFluc fusion proteins (normalized luminescence) [1] | SMILES | raw luminescence signal (endocytosis, gain of signal), negative control (B2AR) fusion proteins [2] |
| --- | --- | --- |
| detected internalization | CC[C@H](C)[C@H](NC(=O)[C@H](Cc1ccc(O)cc1)NC(=O)[C@@H](NC(=O)[C@H](CCCNC(=N)N)NC(=O)CNC)C(C)C)C(=O)N[C@@H](Cc1cnc[nH]1)C(=O)N1CCC[C@H]1C(=O)N[C@H](C)C(=O)O [TRV120027] | – |
| – | NC(=O)CC[C@@H]1NC(=O)[C@H](Cc2ccccc2)NC(=O)[C@H](Cc2ccc(O)cc2)NC(=O)[C@@H](N)CSSC[C@@H](C(=O)N2CCC[C@H]2C(=O)N[C@@H](CCCN=C(N)N)C(=O)NCC(N)=O)NC(=O)[C@H](CC(N)=O)NC1=O [arginine vasopressin] | no increase |
